Assay type in all cases: biochemical
One assay deals with T1, human FAK (Homo sapiens, UniProt Q05397).
T1 construct: The complete cDNA of human FAK; made in house; host or cells: baculovirus expression system (vector pFastBac HTc)
Kind of assay: FAK autophosphorylation inhibition, time resolved fluorescence (HTRF) assay. The settings on record: 10 μM (values without asterisk); read-out: FAK % inhib at 10 μM. The method, boiled down: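 Autophosphorylation was detected by europium-cryptate anti-pTyr and XL665 anti-His energy transfer, percent inhibition from the 665/620 ratio relative to no-compound wells. Enzyme: His-FAK full length, 6.6 µg/ml, incubated 1 h at 37 °C, pH 7.2, 15 µM ATP.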

A further assay concerns the target T2, human KDR enzyme (Homo sapiens, UniProt P35968).
T2 construct: The cytoplasmic domain of the human KDR enzyme; GST; made in house; host or cells: SF21 insect cells (baculovirus)
Kind of assay: KDR substrate (PLCγ) phosphorylation, scintillation assay. The settings on record: 10 μM; read-out: KDR % inhib at 10 μM. The method in brief:
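Values are percent inhibition relative to the compound-free control, read by scintillation counting of 33P incorporation after EDTA stop. Baculovirus/SF21-expressed GST-KDR cytoplasmic domain (100 ng) acted for 1 h at 37 °C in pH 7.2 MOPS kinase buffer. The substrate was GST-PLCγ SH2-SH3 (2 μg), added with γ33P-ATP and 2 μM unlabeled ATP.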

For another assay, the target named is T3, Aurora2 kinase (Homo sapiens, UniProt O14965).
T3 construct: A complete recombinant Aurora2 enzyme; His tag (N); made in house; host or cells: E. coli
T3 sequence (O14965 1-403): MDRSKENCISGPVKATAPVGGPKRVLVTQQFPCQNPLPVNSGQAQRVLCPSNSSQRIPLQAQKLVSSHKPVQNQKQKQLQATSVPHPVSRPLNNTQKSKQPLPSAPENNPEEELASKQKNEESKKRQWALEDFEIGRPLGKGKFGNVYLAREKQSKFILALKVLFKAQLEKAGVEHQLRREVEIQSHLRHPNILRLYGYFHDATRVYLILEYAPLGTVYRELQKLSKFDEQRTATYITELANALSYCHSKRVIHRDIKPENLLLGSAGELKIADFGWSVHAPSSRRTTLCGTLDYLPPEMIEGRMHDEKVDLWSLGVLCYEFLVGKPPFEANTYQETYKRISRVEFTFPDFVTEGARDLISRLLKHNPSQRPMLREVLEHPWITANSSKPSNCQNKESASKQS
Kind of assay: Aurora2 kinase radioactivity scintillation assay using nickel chelate (NuMA substrate). To be noted: 10 μM; read-out: Aurora2 % inhib at 10 μM. The method in brief: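 Read-out is 33P incorporation into His-NuMA (Q1687-H2101, 0.5 μM) captured on nickel chelate, after 30 min at 37 °C with 0.02 μM His-Aurora2 and 1 μM ATP. Expressed as percentage inhibition of uncompounded control activity, background subtracted.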

Assay [1] has as its target T4, human IGF1R cytoplasmic domain (Homo sapiens, UniProt P08069).
T4 construct: The human IGF1R cytoplasmic domain was cloned; made in house; host or cells: SF21 insect cells (baculovirus)
Kind of assay: IGF1R autophosphorylation inhibition, time resolved fluorescence (HTRF) assay. To be noted: 10 μM; read-out: IGF1R % inhib at 10 μM. The protocol: The inhibitory activity of the compounds on IGF1R is determined by measuring the inhibition of the autophosphorylation of the enzyme using a time resolved fluorescence (HTRF) assay.
The human IGF1R cytoplasmic domain was cloned, as a fusion with glutathione S-transferase (GST), into the baculovirus expression vector pFastBac-GST. The protein was expressed in SF21 cells and purified to approximately 80% homogeneity.
The kinase activity was determined by incubating the enzyme with various concentrations of test compound in a 50 mM Hepes buffer, pH 7.5, containing 5 mM MnCl2, 50 mM NaCl, 3% glycerol, 0.025% Tween […] of ATP. The enzyme reaction is stopped by adding 100 mM Hepes buffer, pH 7.0, containing 0.4 M KF, 133 mM EDTA and 0.1% BSA containing an anti-GST antibody labeled with XL665 and an antiphosphotyrosine antibody conjugated to europium cryptate (Eu-K). The characteristics of the two fluorophores, XL-665 and Eu-K, are available in G. Mathis et al., Anticancer Research, 1997, 17, pages 3011-3014. The transfer of energy from the excited europium cryptate to the acceptor XL665 is proportional to the degree of autophosphorylation of IGF1R. The long-lived signal specific for XL-665 is measured in a Victor analyzer plate counter (Perkin-elmer). The inhibition of the IGF1R autophosphorylation activity with compounds of the invention is expressed as percentage inhibition compared to a control whose activity is measured in the absence of test compound.

T1 sequence (Q05397 whole entry): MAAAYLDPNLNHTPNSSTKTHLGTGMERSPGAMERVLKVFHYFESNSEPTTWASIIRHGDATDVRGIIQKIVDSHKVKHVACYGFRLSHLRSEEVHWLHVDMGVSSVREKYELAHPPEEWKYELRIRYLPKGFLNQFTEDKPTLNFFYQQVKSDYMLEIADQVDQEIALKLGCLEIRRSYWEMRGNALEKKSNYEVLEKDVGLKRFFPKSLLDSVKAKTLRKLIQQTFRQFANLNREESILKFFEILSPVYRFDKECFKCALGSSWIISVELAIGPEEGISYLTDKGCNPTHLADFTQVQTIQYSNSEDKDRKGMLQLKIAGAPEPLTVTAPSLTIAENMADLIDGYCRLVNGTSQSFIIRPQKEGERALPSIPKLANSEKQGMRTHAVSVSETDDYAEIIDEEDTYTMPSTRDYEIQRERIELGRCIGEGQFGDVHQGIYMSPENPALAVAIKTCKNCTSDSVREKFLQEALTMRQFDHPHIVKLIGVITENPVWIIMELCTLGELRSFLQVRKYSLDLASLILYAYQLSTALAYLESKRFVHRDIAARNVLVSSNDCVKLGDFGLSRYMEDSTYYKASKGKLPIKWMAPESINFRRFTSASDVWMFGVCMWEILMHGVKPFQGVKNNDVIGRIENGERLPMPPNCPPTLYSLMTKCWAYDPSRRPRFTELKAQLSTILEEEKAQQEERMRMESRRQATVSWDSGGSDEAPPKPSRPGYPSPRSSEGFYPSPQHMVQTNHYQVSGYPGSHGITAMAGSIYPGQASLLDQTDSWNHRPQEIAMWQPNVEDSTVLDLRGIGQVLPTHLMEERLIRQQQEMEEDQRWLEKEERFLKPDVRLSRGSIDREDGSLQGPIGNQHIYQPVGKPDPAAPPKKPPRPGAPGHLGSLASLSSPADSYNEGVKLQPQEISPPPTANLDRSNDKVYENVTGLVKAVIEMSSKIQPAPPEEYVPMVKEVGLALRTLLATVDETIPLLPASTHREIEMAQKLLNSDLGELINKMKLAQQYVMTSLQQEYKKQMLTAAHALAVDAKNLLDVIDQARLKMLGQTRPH
T2 sequence (P35968 786-1356 limits assumed): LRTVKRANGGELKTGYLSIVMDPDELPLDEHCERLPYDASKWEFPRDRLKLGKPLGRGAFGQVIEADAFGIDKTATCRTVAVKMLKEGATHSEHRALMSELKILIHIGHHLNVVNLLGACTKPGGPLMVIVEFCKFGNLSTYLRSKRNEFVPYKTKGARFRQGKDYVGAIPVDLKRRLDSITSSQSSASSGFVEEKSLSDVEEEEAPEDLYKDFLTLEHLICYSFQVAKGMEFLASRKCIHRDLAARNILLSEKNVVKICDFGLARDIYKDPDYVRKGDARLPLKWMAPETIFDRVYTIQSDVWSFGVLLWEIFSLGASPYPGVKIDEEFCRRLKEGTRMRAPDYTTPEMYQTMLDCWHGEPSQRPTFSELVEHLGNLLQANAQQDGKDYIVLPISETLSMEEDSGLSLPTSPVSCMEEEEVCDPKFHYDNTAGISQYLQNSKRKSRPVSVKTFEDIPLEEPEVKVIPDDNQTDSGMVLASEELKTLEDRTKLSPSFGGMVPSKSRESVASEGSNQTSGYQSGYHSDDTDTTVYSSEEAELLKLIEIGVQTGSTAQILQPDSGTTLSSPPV
T4 sequence (P08069 960-1367 limits assumed): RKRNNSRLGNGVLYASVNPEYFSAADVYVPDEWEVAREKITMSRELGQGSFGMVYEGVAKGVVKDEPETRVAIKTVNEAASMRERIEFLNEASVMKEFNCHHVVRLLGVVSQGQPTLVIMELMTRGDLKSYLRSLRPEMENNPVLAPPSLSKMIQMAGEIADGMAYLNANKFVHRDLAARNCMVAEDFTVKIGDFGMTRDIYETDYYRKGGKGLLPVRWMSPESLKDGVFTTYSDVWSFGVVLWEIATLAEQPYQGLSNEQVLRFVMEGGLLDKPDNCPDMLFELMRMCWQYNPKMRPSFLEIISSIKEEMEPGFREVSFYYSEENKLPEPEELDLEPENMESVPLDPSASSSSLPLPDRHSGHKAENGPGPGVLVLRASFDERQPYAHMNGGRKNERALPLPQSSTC

For `CS(=O)(=O)c1ccccc1S(=O)(=O)Nc1ccc2[nH]nc(-c3cccc(Cl)c3)c2c1` [Example 177, N-[3-(3-Chlorophenyl)-1H-indazol-5-yl]-2-methanesulfonyl-benzenesulfonamide], the inhibition at 10 µM on human FAK came out at 97%; on human KDR enzyme, 71%; at Aurora2 kinase, 95%; in assay [1], 80%.

Turning to `CS(=O)(=O)c1ccccc1S(=O)(=O)Nc1ccc2[nH]nc(-c3cccc(OC(F)(F)F)c3)c2c1` [Example 219, N-[3-(3-Trifluoromethoxy-phenyl)-1H-indazol-5-yl]-2-methanesulfonyl-benzenesulfonamide], the inhibition at 10 µM was 87% at human FAK, 31% at human KDR enzyme, 86% on Aurora2 kinase and 60% in assay [1].

On to `CN(C)c1cccc2c(S(=O)(=O)Nc3ccc4[nH]nc(-c5ccccc5)c4c3)cccc12` [Example 107, 5-Dimethylamino-N-(3-phenyl-1H-indazol-5-yl)naphthalene-1-sulfonamide], for which the inhibition at 10 µM on human FAK came out at 10%; on human KDR enzyme, 51%; at Aurora2 kinase, 43%; in assay [1] it was 84%.

Take `CS(=O)(=O)c1ccccc1S(=O)(=O)Nc1ccc2[nH]nc(-c3cccc(F)c3)c2c1` [Example 182, N-[3-(3-Fluorophenyl)-1H-indazol-5-yl]-2-methanesulfonyl-benzenesulfonamide]: the inhibition at 10 µM on human FAK came to 96%; at human KDR enzyme, 68%; on Aurora2 kinase, 94%; in assay [1], 69%.

Regarding `CC(C)c1cccc(-c2n[nH]c3ccc(NS(=O)(=O)c4ccccc4S(C)(=O)=O)cc23)c1` [Example 203, N-[3-(3-Isopropylphenyl)-1H-indazol-5-yl]-2-methanesulfonyl-benzenesulfonamide], the inhibition at 10 µM on human FAK is 86%; on human KDR enzyme, 39%; on Aurora2 kinase, 84%; in assay [1], 59%.

As to `CS(=O)(=O)c1ccc(-c2n[nH]c3ccc(NS(=O)(=O)c4ccccc4S(C)(=O)=O)cc23)cc1` [Example 220, 2-Methanesulfonyl-N-[3-(4-methanesulfonylphenyl)-1H-indazol-5-yl]-benzenesulfonamide], the inhibition at 10 µM on human FAK came to 96%; on human KDR enzyme, 88%; on Aurora2 kinase, 95%; in assay [1], 75%.

As for `CC(=O)c1ccc(-c2n[nH]c3ccc(NS(=O)(=O)c4ccccc4S(C)(=O)=O)cc23)cc1` [Example 207, N-[3-(4-Acetylphenyl)-1H-indazol-5-yl]-2-methanesulfonyl-benzenesulfonamide], the inhibition at 10 µM is 91% on human FAK, 45% at human KDR enzyme, 94% at Aurora2 kinase and 56% in assay [1].

For the compound `CS(=O)(=O)c1ccc(S(=O)(=O)Nc2ccc3[nH]nc(-c4ccccc4)c3c2)cc1` [Example 155, 4-Methanesulfonyl-N-(3-phenyl-1H-indazol-5-yl)-benzenesulfonamide], the inhibition at 10 µM on human FAK came out at 5%; on human KDR enzyme it was 61%; at Aurora2 kinase it was 61%; in assay [1], 50%.

As to `CS(=O)(=O)c1ccccc1S(=O)(=O)Nc1ccc2[nH]nc(-c3ccc(-c4ccccc4)c(F)c3)c2c1` [Example 210, N-[3-(2-Fluorobiphenyl-4-yl)-1H-indazol-5-yl]-2-methanesulfonyl-benzenesulfonamide], the inhibition at 10 µM at human FAK amounted to 70%; at human KDR enzyme, 50%; on Aurora2 kinase, 65%; in assay [1] it was 0%.

Regarding `Cc1cc(-c2n[nH]c3ccc(NS(=O)(=O)c4ccccc4S(C)(=O)=O)cc23)ccc1F` [Example 222, N-[3-(4-Fluoro-3-methyl-phenyl)-1H-indazol-5-yl]-2-methanesulfonyl-benzenesulfonamide], the inhibition at 10 µM at human FAK came to 94%; on human KDR enzyme, 49%; at Aurora2 kinase it was 92%; in assay [1], 66%.

For the compound `CSc1ccc(-c2n[nH]c3ccc(NS(=O)(=O)c4ccccc4S(C)(=O)=O)cc23)cc1` [Example 172, 2-Methanesulfonyl-N-[3-(4-methylsulfanylphenyl)-1H-indazol-5-yl]-benzenesulfonamide], the inhibition at 10 µM on human FAK came out at 92%; at human KDR enzyme it was 71%; on Aurora2 kinase, 94%; in assay [1] it was 84%.

`CC(C)c1ccc(-c2n[nH]c3ccc(NS(=O)(=O)c4ccccc4S(C)(=O)=O)cc23)cc1` [Example 201, N-[3-(4-Isopropylphenyl)-1H-indazol-5-yl]-2-methanesulfonyl-benzenesulfonamide]: the inhibition at 10 µM at human FAK is 55%; on human KDR enzyme, 50%; at Aurora2 kinase, 82%; in assay [1], 24%.

`CC(C)(C)c1ccc(-c2n[nH]c3ccc(NS(=O)(=O)c4ccccc4S(C)(=O)=O)cc23)cc1` [Example 197, N-[3-(4-tert-Butylphenyl)-1H-indazol-5-yl]-2-methanesulfonyl-benzenesulfonamide]: the inhibition at 10 µM was 43% at human FAK, 41% at human KDR enzyme, 73% at Aurora2 kinase and 0% in assay [1].

`COc1ccc2[nH]c(-c3n[nH]c4ccc(NS(=O)(=O)c5ccccc5S(C)(=O)=O)cc34)cc2c1` [Example 58, 2-Methylsulfonyl-N-[3-(5-methoxy-1H-indol-2-yl)-1H-indazol-5-yl]benzenesulfonamide]: the inhibition at 10 µM was found to be 97% at human FAK, 97% on human KDR enzyme, 100% on Aurora2 kinase and 100% in assay [1].

Consider `CSc1ccccc1-c1n[nH]c2ccc(NS(=O)(=O)c3ccccc3S(C)(=O)=O)cc12` [Example 103, 2-methylsulfonyl-N-[3-(2-methylsulfanylphenyl)-1H-indazol-5-yl]benzenesulfonamide], for which the inhibition at 10 µM worked out at 61% on human FAK, 25% on human KDR enzyme, 40% at Aurora2 kinase and 19% in assay [1].

`CS(=O)(=O)c1ccccc1S(=O)(=O)Nc1ccc2[nH]nc(/C=C/c3ccccc3)c2c1` [Example 78, 2-Methylsulfonyl-N-[3-((E)-styryl)-1H-indazol-5-yl]benzenesulfonamide]: the inhibition at 10 µM turned out to be 94% on human FAK, 97% at human KDR enzyme, 100% on Aurora2 kinase and 96% in assay [1].

As for `CS(=O)(=O)c1ccccc1S(=O)(=O)Nc1ccc2[nH]nc(-c3ccc(Cl)cc3Cl)c2c1` [Example 163, N-[3-(2,4-Dichlorophenyl)-1H-indazol-5-yl]-2-methanesulfonyl-benzenesulfonamide], the inhibition at 10 µM came out at 61% at human FAK, 61% at human KDR enzyme, 64% at Aurora2 kinase and 23% in assay [1].

The values above are taken from patent US6858638B2, “Substituted indazoles, compositions containing them, method of production and use” (Aventis Pharma S.A., priority 2002, dated 2005).
